In paper PMC4858918, “Improving the N-terminal diversity of sansanmycin through mutasynthesis” (Microbial Cell Factories, 2016):
In brackets after ≈: the same amount, converted by molar mass.

Key:
[1] = test system: P. aeruginosa 11; assay: MIC, microdilution test (CLSI); conditions: Pseudomonas aeruginosa, 11, 24 h, read-out: MIC P. aeruginosa 11
[2] = test system: M. tuberculosis H37Rv; assay: MIC, microplate Alamar blue assay (MABA); format: cell-based; conditions: Mycobacterium tuberculosis, standard and susceptible strain
[3] = test system: B. subtilis CMCC (B) 63501; assay: MIC, microdilution test (CLSI); conditions: Bacillus subtilis, 24 h, read-out: MIC B. subtilis CMCC (B) 63501
[4] = test system: E. coli ΔtolC mutant; assay: MIC, microdilution test (CLSI); conditions: Mueller-Hinton broth, 10^6 cells/ml, 37 °C, 24 h, visual observation, triplicate
[5] = Stability determination in KH2PO4 buffer; format: physicochemical; conditions: chemical stability, 0.05 M KH2PO4 buffer pH 6.0, room temperature (25 °C), HPLC peak areas, three parallel repeats
Protocol: As it is easier to get enough amount of sansanmycin MX-2 and MX-4, the stability test of sansanmycin A, MX-2 and MX-4 was performed in KH2PO4 buffer (pH 6.0) at room temperature.
Fig. 8 Stability of sansanmycin A, MX-2 and MX-4. a HPLC analysis of sansanmycin A at indicated days in KH2PO4 buffer (pH 6.0) at room temperature. b The changes of the level of sansanmycin A, MX-2 and MX-4 over time. All samples were analyzed by HPLC and quantified according to the areas of peaks. blue line, sansanmycin MX-2; red line, sansanmycin MX-4; green line, sansanmycin A
To dissect the stability of sansanmycin A and other sansanmycin analogues, compounds were dissolved in 0.05 M KH2PO4 buffer (pH adjusted to 6.0 with NaOH). All samples were incubated at 25 °C for 9 days. Each sample has three parallel repeats. Residual analogues were analyzed by HPLC and quantified by the peak areas.

Row | Structure (SMILES) | MIC [2] [µg/mL] | also measured
1 | [H]/N=C(/N)N[C@H]1[C@H](O)[C@@H](O)[C@H](O[C@@H]2O[C@@H](C)[C@](O)(C=O)[C@H]2O[C@@H]2O[C@@H](CO)[C@H](O)[C@@H](O)[C@@H]2NC)[C@@H](N/C(N)=N\[H])[C@@H]1O [Streptomycin] | 0.25 (≈ 0.43 µM) | MIC [1]: 4 µg/mL (≈ 6.88 µM); MIC [3]: 2 µg/mL (≈ 3.44 µM); MIC E. coli ΔtolC [4]: 16 µg/mL (≈ 27.5 µM)
2 | CC[C@@H](CO)NCCN[C@@H](CC)CO [Ethambutol] | 0.5 (≈ 2.45 µM) | 
3 | CSCC[C@H](NC(=O)N[C@@H](Cc1c[nH]c2ccccc12)C(=O)O)C(=O)NC(C(=O)N/C=C1/CC(O)C(n2ccc(=O)[nH]c2=O)O1)C(C)N(C)C(=O)[C@@H](N)Cc1cccc(O)c1 (some centres unmarked) [A, sansanmycin A] |  | compound remained after 6 days of incubation [5]: less than 10%
4 | NNC(=O)c1ccncc1 [Isoniazid] | 0.125 (≈ 0.911 µM) | 
5 | CO[C@H]1/C=C/O[C@@]2(C)Oc3c(C)c(O)c4c(O)c(c(/C=N/N5CCN(C)CC5)c(O)c4c3C2=O)NC(=O)/C(C)=C\C=C\[C@H](C)[C@H](O)[C@@H](C)[C@@H](O)[C@@H](C)[C@H](OC(C)=O)[C@@H]1C [Rifampicin] | < 0.06 | 
